Experimental data published in the kinase profiling compilation of Christmann-Franck et al. (2016).
“And” between values parts separate entries of the source, which are not always exact repeats. Identical values can stand only once.

Key:
Experiment in all cases: Caliper, Mobility shift assay off-chip
[1] = system: ABL1 (human), P00519 [H396P]
AKT1 (human) = AKT1 (human) (UniProt P31749)
AKT3 (human) = AKT3 (human) (UniProt Q9Y243)
BMX (human) = BMX (human) (UniProt P51813)
BRSK1 (human) = BRSK1 (human) (UniProt Q8TDC3)
Sequence of BRSK1 (human) (Q8TDC3 whole entry, looked up): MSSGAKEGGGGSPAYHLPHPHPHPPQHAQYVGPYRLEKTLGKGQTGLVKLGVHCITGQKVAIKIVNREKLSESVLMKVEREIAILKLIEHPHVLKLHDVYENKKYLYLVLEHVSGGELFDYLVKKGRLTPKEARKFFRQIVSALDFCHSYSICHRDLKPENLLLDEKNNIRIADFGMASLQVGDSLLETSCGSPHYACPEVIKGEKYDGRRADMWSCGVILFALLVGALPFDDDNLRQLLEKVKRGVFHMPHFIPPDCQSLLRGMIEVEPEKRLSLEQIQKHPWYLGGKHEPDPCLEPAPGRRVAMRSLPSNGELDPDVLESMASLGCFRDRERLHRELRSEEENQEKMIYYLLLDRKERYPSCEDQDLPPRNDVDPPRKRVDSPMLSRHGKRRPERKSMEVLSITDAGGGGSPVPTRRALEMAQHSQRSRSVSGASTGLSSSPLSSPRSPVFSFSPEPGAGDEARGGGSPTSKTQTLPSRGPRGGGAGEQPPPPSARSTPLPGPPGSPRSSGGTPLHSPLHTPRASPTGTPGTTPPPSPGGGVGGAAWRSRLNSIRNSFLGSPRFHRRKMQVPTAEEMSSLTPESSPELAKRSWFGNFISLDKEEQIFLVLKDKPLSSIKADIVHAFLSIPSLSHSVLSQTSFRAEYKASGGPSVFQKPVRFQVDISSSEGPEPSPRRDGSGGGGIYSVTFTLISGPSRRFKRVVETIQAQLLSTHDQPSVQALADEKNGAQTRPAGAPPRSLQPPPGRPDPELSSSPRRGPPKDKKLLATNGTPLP

BRSK2 (human) = BRSK2 (human) (UniProt Q8IWQ3)
Sequence of BRSK2 (human) (Q8IWQ3 whole entry, looked up): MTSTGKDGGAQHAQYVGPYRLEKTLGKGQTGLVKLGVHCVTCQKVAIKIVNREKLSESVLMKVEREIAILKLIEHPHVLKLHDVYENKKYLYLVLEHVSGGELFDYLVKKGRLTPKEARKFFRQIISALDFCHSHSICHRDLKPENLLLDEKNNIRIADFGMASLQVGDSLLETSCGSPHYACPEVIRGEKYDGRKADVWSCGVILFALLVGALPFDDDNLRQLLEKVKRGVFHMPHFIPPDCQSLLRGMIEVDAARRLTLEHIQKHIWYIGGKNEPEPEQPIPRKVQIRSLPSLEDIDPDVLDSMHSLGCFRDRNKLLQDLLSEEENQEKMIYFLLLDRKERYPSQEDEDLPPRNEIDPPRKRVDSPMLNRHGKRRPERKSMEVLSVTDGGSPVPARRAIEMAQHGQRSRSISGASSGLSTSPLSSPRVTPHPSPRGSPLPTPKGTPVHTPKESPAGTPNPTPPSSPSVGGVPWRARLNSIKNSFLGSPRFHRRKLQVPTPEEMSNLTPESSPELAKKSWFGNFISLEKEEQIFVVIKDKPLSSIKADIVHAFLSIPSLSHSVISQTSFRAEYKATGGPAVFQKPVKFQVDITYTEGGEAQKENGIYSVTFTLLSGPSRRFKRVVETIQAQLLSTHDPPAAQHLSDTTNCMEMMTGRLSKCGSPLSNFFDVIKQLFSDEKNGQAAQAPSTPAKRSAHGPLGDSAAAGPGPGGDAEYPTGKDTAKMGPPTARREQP

CAMK2D (human) = CAMK2D (human) (UniProt Q13557)
CAMK2G (human) = CAMK2G (human) (UniProt Q13555)
CSNK1A1 (human) = CSNK1A1 (human) (UniProt P48729)
CSNK1D (human) = CSNK1D (human) (UniProt P48730)
DCLK2 (human) = DCLK2 (human) (UniProt Q8N568)
EGFR (human) = EGFR (human) (UniProt P00533)
FGFR3 (human) = FGFR3 (human) (UniProt P22607)
FLT3 (human) = FLT3 (human) (UniProt P36888)
[2] = system: FLT3 (human), P36888 [D835Y]
GSK3B (human) = GSK3B (human) (UniProt P49841)
IGF1R (human) = IGF1R (human) (UniProt P08069)
IKBKB (human) = IKBKB (human) (UniProt O14920)
LYN (human) = LYN (human) (UniProt P07948)
Sequence of LYN (human) (P07948 whole entry, looked up): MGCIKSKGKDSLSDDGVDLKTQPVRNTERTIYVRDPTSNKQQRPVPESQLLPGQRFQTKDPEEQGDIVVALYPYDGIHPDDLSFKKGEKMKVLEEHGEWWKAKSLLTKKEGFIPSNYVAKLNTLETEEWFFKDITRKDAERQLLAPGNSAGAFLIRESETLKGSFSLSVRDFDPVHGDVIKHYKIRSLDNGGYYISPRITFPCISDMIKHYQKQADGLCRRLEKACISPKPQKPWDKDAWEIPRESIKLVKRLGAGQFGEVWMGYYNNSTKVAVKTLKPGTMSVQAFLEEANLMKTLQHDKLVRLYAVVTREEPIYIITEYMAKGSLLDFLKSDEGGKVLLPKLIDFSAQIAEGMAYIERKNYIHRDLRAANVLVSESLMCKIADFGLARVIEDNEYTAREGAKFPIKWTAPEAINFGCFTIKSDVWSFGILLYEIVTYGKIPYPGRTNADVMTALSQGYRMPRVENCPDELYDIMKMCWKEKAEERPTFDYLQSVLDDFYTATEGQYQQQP

MAPK11 (human) = MAPK11 (human) (UniProt Q15759)
MAPK14 (human) = MAPK14 (human) (UniProt Q16539)
MAPK3 (human) = MAPK3 (human) (UniProt P27361)
Sequence of MAPK3 (human) (P27361 whole entry, looked up): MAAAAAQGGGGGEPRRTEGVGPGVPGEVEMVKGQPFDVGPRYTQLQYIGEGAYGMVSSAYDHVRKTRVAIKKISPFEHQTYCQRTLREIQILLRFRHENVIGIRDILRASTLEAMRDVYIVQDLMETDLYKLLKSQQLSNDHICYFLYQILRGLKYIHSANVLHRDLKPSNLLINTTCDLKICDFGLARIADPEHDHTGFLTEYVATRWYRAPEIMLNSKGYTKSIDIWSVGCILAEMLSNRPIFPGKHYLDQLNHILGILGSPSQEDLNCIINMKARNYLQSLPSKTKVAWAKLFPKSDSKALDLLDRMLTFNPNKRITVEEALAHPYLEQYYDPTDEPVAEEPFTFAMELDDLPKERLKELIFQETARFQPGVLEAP

MAPKAPK2 (human) = MAPKAPK2 (human) (UniProt P49137)
Sequence of MAPKAPK2 (human) (P49137 whole entry, looked up): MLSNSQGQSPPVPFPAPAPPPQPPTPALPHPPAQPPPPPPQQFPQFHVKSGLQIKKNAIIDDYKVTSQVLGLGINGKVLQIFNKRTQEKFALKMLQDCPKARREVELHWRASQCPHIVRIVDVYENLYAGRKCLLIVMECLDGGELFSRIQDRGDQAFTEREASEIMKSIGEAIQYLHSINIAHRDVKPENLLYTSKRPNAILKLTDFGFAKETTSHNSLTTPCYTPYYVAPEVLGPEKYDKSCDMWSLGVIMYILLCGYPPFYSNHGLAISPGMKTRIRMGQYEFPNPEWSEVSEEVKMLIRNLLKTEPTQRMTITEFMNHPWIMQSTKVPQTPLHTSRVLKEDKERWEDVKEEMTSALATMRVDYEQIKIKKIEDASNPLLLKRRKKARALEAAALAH

MAPKAPK3 (human) = MAPKAPK3 (human) (UniProt Q16644)
MAPKAPK5 (human) = MAPKAPK5 (human) (UniProt Q8IW41)
MARK2 (human) = MARK2 (human) (UniProt Q7KZI7)
Sequence of MARK2 (human) (Q7KZI7 whole entry, looked up): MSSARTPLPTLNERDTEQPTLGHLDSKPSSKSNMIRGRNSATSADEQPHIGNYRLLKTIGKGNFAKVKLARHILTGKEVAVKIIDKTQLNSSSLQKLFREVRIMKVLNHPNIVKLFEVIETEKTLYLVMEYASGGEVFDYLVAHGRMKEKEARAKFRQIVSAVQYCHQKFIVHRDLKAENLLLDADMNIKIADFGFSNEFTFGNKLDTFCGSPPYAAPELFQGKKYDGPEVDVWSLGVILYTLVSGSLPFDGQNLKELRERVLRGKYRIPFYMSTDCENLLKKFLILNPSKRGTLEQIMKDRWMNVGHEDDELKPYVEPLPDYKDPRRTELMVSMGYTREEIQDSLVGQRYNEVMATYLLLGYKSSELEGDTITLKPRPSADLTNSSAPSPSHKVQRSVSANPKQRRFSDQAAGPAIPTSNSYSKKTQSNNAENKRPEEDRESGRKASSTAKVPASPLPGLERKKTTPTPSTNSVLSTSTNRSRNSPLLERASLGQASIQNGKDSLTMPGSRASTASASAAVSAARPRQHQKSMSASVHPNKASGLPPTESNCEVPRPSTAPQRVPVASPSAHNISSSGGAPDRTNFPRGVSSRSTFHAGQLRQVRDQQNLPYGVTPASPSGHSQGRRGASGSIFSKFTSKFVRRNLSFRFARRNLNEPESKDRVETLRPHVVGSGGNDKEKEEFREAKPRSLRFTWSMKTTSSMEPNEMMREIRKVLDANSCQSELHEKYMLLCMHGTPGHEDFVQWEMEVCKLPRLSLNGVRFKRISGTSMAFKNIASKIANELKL

MARK3 (human) = MARK3 (human) (UniProt P27448)
PRKCE (human) = PRKCE (human) (UniProt Q02156)
PRKD2 (human) = PRKD2 (human) (UniProt Q9BZL6)
PRKD3 (human) = PRKD3 (human) (UniProt O94806)
PRKG1 (human) = PRKG1 (human) (UniProt Q13976)
RAF1 (human) = RAF1 (human) (UniProt P04049)
SYK (human) = SYK (human) (UniProt P43405)
TSSK2 (human) = TSSK2 (human) (UniProt Q96PF2)

Sequence of AKT1 (human) (P31749 whole entry, looked up): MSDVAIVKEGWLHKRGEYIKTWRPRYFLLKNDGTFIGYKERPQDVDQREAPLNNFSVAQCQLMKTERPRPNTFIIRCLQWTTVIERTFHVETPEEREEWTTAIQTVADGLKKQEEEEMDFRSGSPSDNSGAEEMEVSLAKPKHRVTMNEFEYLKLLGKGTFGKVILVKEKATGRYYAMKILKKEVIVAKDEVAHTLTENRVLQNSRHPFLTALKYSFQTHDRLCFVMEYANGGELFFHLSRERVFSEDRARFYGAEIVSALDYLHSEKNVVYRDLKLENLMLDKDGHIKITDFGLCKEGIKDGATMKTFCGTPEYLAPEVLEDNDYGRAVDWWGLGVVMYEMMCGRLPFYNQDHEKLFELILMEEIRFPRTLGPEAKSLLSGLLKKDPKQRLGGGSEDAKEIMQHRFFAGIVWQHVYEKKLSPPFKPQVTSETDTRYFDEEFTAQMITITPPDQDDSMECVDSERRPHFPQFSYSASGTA
Sequence of BMX (human) (P51813 whole entry, looked up): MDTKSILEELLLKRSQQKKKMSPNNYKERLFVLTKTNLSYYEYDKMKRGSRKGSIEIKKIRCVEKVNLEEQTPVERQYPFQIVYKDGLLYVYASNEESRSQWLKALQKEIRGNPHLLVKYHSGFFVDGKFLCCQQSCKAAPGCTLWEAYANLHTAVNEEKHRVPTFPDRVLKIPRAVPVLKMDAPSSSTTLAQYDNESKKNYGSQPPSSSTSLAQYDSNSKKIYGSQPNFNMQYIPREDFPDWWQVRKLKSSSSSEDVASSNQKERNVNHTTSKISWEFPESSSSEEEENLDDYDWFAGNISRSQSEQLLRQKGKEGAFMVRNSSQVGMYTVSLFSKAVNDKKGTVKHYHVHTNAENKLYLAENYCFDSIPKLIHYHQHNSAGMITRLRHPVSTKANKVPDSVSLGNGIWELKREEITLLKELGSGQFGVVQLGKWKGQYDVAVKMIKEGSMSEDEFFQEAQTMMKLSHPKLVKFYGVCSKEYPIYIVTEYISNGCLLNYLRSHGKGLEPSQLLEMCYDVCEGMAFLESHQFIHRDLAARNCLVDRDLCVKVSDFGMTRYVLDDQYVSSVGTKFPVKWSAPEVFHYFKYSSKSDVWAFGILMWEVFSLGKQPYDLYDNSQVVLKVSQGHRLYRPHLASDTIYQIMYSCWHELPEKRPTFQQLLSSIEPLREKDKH

SMILES: O=c1c2cc(CS(=O)(=O)NCc3ccccn3)ccc2ccc2ncc(C3CCNCC3)cc12
- inhibition ([1]; compound 0.01 µM): 4.8%
- inhibition ([1]; compound 0.1 µM): -2.5%
- inhibition (AKT1 (human); compound 0.01 µM): 2.8%
- inhibition (AKT1 (human); compound 0.1 µM): -1.1%
- inhibition (AKT3 (human); compound 0.01 µM): -6.5%
- inhibition (AKT3 (human); compound 0.1 µM): 5.2%
- inhibition (BMX (human); compound 0.01 µM): -12.1%
- inhibition (BMX (human); compound 0.1 µM): -3.8%
- inhibition (BRSK1 (human); compound 0.01 µM): 9.9%
- inhibition (BRSK1 (human); compound 0.1 µM): -7.5%
- inhibition (BRSK2 (human); compound 0.01 µM): -1.9%
- inhibition (BRSK2 (human); compound 0.1 µM): 4.8%
- inhibition (CAMK2D (human); compound 0.01 µM): 1.7%
- inhibition (CAMK2D (human); compound 0.1 µM): 13.2%
- inhibition (CAMK2G (human); compound 0.01 µM): 6.3%
- inhibition (CAMK2G (human); compound 0.1 µM): 2.1%
- inhibition (CSNK1A1 (human); compound 0.01 µM): 1.4%
- inhibition (CSNK1A1 (human); compound 0.1 µM): -0.5%
- inhibition (CSNK1D (human); compound 0.01 µM): 2%
- inhibition (CSNK1D (human); compound 0.1 µM): -2.8%
- inhibition (DCLK2 (human); compound 0.01 µM): 8.7%
- inhibition (DCLK2 (human); compound 0.1 µM): -0.7%
- inhibition (EGFR (human); compound 0.01 µM): -19.5%
- inhibition (EGFR (human); compound 0.1 µM): -36.5%
- inhibition (FGFR3 (human); compound 0.01 µM): -38.6%
- inhibition (FGFR3 (human); compound 0.1 µM): -12.3%
- inhibition (FLT3 (human); compound 0.01 µM): 0.2%
- inhibition (FLT3 (human); compound 0.1 µM): 5%
- inhibition ([2]; compound 0.01 µM): 2.3%
- inhibition ([2]; compound 0.1 µM): 16.7%
- inhibition (GSK3B (human); compound 0.01 µM): -1.8%
- inhibition (GSK3B (human); compound 0.1 µM): -1%
- inhibition (IGF1R (human); compound 0.01 µM): 5%
- inhibition (IGF1R (human); compound 0.1 µM): -2.7%
- inhibition (IKBKB (human); compound 0.01 µM): -0.2%
- inhibition (IKBKB (human); compound 0.1 µM): 0.6%
- inhibition (LYN (human); compound 0.01 µM): -6%
- inhibition (LYN (human); compound 0.1 µM): -9.2%
- inhibition (MAPK11 (human); compound 0.01 µM): -1.5%
- inhibition (MAPK11 (human); compound 0.1 µM): 0.7%
- inhibition (MAPK14 (human); compound 0.01 µM): -1.2%
- inhibition (MAPK14 (human); compound 0.1 µM): -6.5%
- inhibition (MAPK3 (human); compound 0.01 µM): -1%
- inhibition (MAPK3 (human); compound 0.1 µM): 1.7%
- inhibition (MAPKAPK2 (human); compound 0.01 µM): 0.4%
- inhibition (MAPKAPK2 (human); compound 0.1 µM): -1.9%
- inhibition (MAPKAPK3 (human); compound 0.01 µM): -0.3%
- inhibition (MAPKAPK3 (human); compound 0.1 µM): -0.3%
- inhibition (MAPKAPK5 (human); compound 0.01 µM): -4.7%
- inhibition (MAPKAPK5 (human); compound 0.1 µM): 1.6%
- inhibition (MARK2 (human); compound 0.01 µM): -7%
- inhibition (MARK2 (human); compound 0.1 µM): -10%
- inhibition (MARK3 (human); compound 0.01 µM): -1.6%
- inhibition (MARK3 (human); compound 0.1 µM): -2.2%
- inhibition (PRKCE (human); compound 0.01 µM): 1.3%
- inhibition (PRKCE (human); compound 0.1 µM): -2%
- inhibition (PRKD2 (human); compound 0.01 µM): -6.3%
- inhibition (PRKD2 (human); compound 0.1 µM): -5.2%
- inhibition (PRKD3 (human); compound 0.01 µM): 3.2%
- inhibition (PRKD3 (human); compound 0.1 µM): -5.2%
- inhibition (PRKG1 (human); compound 0.01 µM): 2% and 2.1%
- inhibition (PRKG1 (human); compound 0.1 µM): 3.8% and -4.6%
- inhibition (RAF1 (human); compound 0.01 µM): 1.4%
- inhibition (RAF1 (human); compound 0.1 µM): 0.6%
- inhibition (SYK (human); compound 0.01 µM): -4.6%
- inhibition (SYK (human); compound 0.1 µM): 6.2%
- inhibition (TSSK2 (human); compound 0.01 µM): 55.4%
- inhibition (TSSK2 (human); compound 0.1 µM): -6.2%

SMILES: O=C(CCc1ccc2ccc3ncc(C4CCNCC4)cc3c(=O)c2c1)NCc1ccccn1
- inhibition ([1]; compound 0.1 µM): 1.4%
- inhibition ([1]; compound 1.0 µM): 1.1%
- inhibition (AKT1 (human); compound 0.1 µM): -7.2%
- inhibition (AKT1 (human); compound 1.0 µM): 1.7%
- inhibition (AKT3 (human); compound 0.1 µM): -12.5%
- inhibition (AKT3 (human); compound 1.0 µM): 2.1%
- inhibition (BMX (human); compound 0.1 µM): -10.4%
- inhibition (BMX (human); compound 1.0 µM): 3.2%
- inhibition (BRSK1 (human); compound 0.1 µM): -1.6%
- inhibition (BRSK1 (human); compound 1.0 µM): 1.6%
- inhibition (BRSK2 (human); compound 0.1 µM): 3.4%
- inhibition (BRSK2 (human); compound 1.0 µM): -3.3%
- inhibition (CAMK2D (human); compound 0.1 µM): -22.5%
- inhibition (CAMK2D (human); compound 1.0 µM): -4.6%
- inhibition (CAMK2G (human); compound 0.1 µM): -3.5%
- inhibition (CAMK2G (human); compound 1.0 µM): -2.8%
- inhibition (CSNK1A1 (human); compound 0.1 µM): 5%
- inhibition (CSNK1A1 (human); compound 1.0 µM): -0.6%
- inhibition (CSNK1D (human); compound 0.1 µM): -7.1%
- inhibition (CSNK1D (human); compound 1.0 µM): -2.9%
- inhibition (DCLK2 (human); compound 0.1 µM): 2%
- inhibition (DCLK2 (human); compound 1.0 µM): 5.8%
- inhibition (EGFR (human); compound 0.1 µM): -5.8%
- inhibition (EGFR (human); compound 1.0 µM): 9.3%
- inhibition (FGFR3 (human); compound 0.1 µM): 0.5%
- inhibition (FGFR3 (human); compound 1.0 µM): 4.9%
- inhibition (FLT3 (human); compound 0.1 µM): -5.8%
- inhibition (FLT3 (human); compound 1.0 µM): -4%
- inhibition ([2]; compound 0.1 µM): -1%
- inhibition ([2]; compound 1.0 µM): 3.4%
- inhibition (GSK3B (human); compound 0.1 µM): -0.6%
- inhibition (GSK3B (human); compound 1.0 µM): -3.3%
- inhibition (IGF1R (human); compound 0.1 µM): -3%
- inhibition (IGF1R (human); compound 1.0 µM): 1.3%
- inhibition (IKBKB (human); compound 0.1 µM): 1.2%
- inhibition (IKBKB (human); compound 1.0 µM): -3.1%
- inhibition (LYN (human); compound 0.1 µM): 3.5%
- inhibition (LYN (human); compound 1.0 µM): -3.2%
- inhibition (MAPK11 (human); compound 0.1 µM): 0.6%
- inhibition (MAPK11 (human); compound 1.0 µM): -1%
- inhibition (MAPK14 (human); compound 0.1 µM): -10.6%
- inhibition (MAPK14 (human); compound 1.0 µM): 5.1%
- inhibition (MAPK3 (human); compound 0.1 µM): 1.7%
- inhibition (MAPK3 (human); compound 1.0 µM): -0.5%
- inhibition (MAPKAPK2 (human); compound 0.1 µM): -1.1%
- inhibition (MAPKAPK2 (human); compound 1.0 µM): 0.8%
- inhibition (MAPKAPK3 (human); compound 0.1 µM): -0.3%
- inhibition (MAPKAPK3 (human); compound 1.0 µM): 0.5%
- inhibition (MAPKAPK5 (human); compound 0.1 µM): -4.3%
- inhibition (MAPKAPK5 (human); compound 1.0 µM): 2.9%
- inhibition (MARK2 (human); compound 0.1 µM): -4.6%
- inhibition (MARK2 (human); compound 1.0 µM): -1.8%
- inhibition (MARK3 (human); compound 0.1 µM): 0.7%
- inhibition (MARK3 (human); compound 1.0 µM): -4.4%
- inhibition (PRKCE (human); compound 0.1 µM): 9.3%
- inhibition (PRKCE (human); compound 1.0 µM): -0.4%
- inhibition (PRKD2 (human); compound 0.1 µM): 7.5%
- inhibition (PRKD2 (human); compound 1.0 µM): 0%
- inhibition (PRKD3 (human); compound 0.1 µM): -21.2%
- inhibition (PRKD3 (human); compound 1.0 µM): 2.2%
- inhibition (PRKG1 (human); compound 0.1 µM): -5% and 4.5%
- inhibition (PRKG1 (human); compound 1.0 µM): -1.6% and 0.1%
- inhibition (RAF1 (human); compound 0.1 µM): 3.2%
- inhibition (RAF1 (human); compound 1.0 µM): -9.1%
- inhibition (SYK (human); compound 0.1 µM): -0.6%
- inhibition (SYK (human); compound 1.0 µM): -0.5%
- inhibition (TSSK2 (human); compound 0.1 µM): -2.3%
- inhibition (TSSK2 (human); compound 1.0 µM): 1.3%
